Here are results for one compound from BindingDB's records for doi:10.1021/acs.jmedchem.6b01595 (Dipartimento Di Chimica E Tecnologie Del Farmaco "Sapienza" …, 2017).

The structures appear in SMILES notation.

The test deals with T1, Histone deacetylase (Plasmodium falciparum (isolate 3D7), UniProt Q7K6A1).
T1 sequence (Q7K6A1 whole entry): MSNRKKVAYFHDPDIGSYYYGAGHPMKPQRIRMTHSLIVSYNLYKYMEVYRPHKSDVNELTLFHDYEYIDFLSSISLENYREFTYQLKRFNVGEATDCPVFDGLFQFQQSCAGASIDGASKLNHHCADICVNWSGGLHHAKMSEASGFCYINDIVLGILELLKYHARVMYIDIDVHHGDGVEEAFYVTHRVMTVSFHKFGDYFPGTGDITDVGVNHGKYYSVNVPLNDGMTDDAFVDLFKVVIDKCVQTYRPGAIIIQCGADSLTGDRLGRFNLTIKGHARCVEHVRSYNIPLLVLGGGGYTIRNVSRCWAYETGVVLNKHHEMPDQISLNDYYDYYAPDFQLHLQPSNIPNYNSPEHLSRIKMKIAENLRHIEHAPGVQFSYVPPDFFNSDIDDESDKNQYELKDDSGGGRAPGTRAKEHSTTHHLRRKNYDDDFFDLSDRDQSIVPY
The test can be described thus: Inhibition of HDAC1 in Plasmodium falciparum 3D7 nuclear extract using Ac-RGK(Ac)-AMC fluorogenic peptide as substrate preincubated for 1 hr followed by substrate addition measured after 10 min by fluorescence assay.

Consider `C/C=C1\NC(=O)[C@H]2CSSCC/C=C/[C@@H](CC(=O)N[C@H](C(C)C)C(=O)N2)OC(=O)[C@H](C(C)C)NC1=O`, for which the IC50 (as a rule, the concentration that inhibits the measured activity by half) was determined as 0.9 nM.
